Measured values as given in patent EP4613329A1, “COMPOUND FOR INHIBITING BRD PROTEIN” (Benobio Co., Ltd., priority 2024, dated 2025).

How the values were obtained:
BRD2 (BD1) = target: T1, BRD2 (BD1) (Homo sapiens, UniProt P25440); assay: Binding inhibitory effect on BRD2 protein (AlphaScreen, GST-BRD2 (BD1) / biotinylated acetyl-histone H4 peptide); details: 100 nM GST-BRD2 (BD1), 100 nM biotinylated acetyl-histone H4 (Lys5, 8, 12, 16) peptide
T1 construct: a bromodomain of BRD2 (BD1) and BRD3 (BD1), one of the BRD protein family
T1 sequence (P25440 74-180 limits assumed, species assumed): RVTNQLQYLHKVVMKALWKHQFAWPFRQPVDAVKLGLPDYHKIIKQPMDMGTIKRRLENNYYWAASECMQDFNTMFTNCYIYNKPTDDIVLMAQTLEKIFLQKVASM

BRD3 (BD1) = target: T2, BRD3 (BD1) (Homo sapiens, UniProt Q15059); assay: Binding inhibitory effect on BRD3 protein (same manner as Experimental Example 1-1)
T2 construct: a bromodomain of BRD2 (BD1) and BRD3 (BD1), one of the BRD protein family; GST
T2 sequence (Q15059 34-140 limits assumed, species assumed): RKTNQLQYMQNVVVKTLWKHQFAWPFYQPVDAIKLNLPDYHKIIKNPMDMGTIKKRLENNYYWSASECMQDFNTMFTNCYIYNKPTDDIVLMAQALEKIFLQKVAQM

[1] = test system: retinal degeneration mouse model; assay: Electroretinogram (ERG) in blue LED-induced retinal degeneration mouse model; format: in vivo, albino BALB/c mice; details: compound 24 nM, Com. Ex. 4 25 mg/kg; for Wavelength enhanced multiple compared to normal saline-treated group, Average value: average of a-wave and b-wave, intravitreal; for Wavelength enhanced multiple compared to normal saline-treated group, a-wave / Wavelength enhanced multiple compared to normal saline-treated group, b-wave: single intravitreal injection 1 hour after LED exposure
Experimental: In order to fabricate a retinal degeneration model, 7-week-old male albino BALB/c mice were used. Three mice were randomly assigned to each test group, and light and dark were maintained at 12-hour intervals. Each mouse was dark-adapted for 24 hours and then the pupils were dilated with 0.5% tropicamide and 0.5% phenylephrine hydrochloride eye drops (Santen, Osaka, Japan) 30 minutes before blue LED exposure. Unanesthetized mice were exposed to 2,000 lux of a blue LED (460 ± 10 nm) for 2 hours in a cage with reflective interiors. The light intensity was measured using an LED photometer (model TM-201L, TENMARS Electronics, Taipei, Taiwan). After exposure to blue LED, the mice were kept in the dark for 24 hours and then resumed on a 12-hour light/dark cycle for 3 days.
In a test substance control test, mice with retinal degeneration were divided into a normal saline-administered group and a compound-administered group (24 nM) of the present disclosure, and 3 mice were randomly assigned to each test group. A positive control test was divided into a normal saline-administered group and an Eyela (25 mg/kg mouse body weight)-administered group (Comparative Example 4), and three mice were randomly assigned to each test group.
All test groups were administered as a single dose by intravitreal injection 1 hour after LED exposure.
That is, mice were stored in a completely dark room for 16 hours before ERG recordings. All animals were anesthetized intraperitoneally with zolazepam (20 mg/kg) and xylazine (7.5 mg/kg). The cornea was coated with hydroxypropyl methylcellulose gel and covered with a gold ring contact electrode. Ground and reference electrodes were disposed subcutaneously on the tail and ears, respectively. Stimuli were short white flashes delivered through a Ganzfeld stimulator (UTAS-3000; LKC Technologies, Gaithersburg, MD, USA). The signal was amplified and filtered through a digital band-pass filter in the range of 5 to 300 Hz to generate a and b waves. Scotopic ERG, and rod-mediated responses were obtained at increasing light intensities of 0.025 and 3.96 cd/s • m^2. Photopic, cone-mediated responses were obtained after 5-min light adaptation to background light intensity. The recordings were obtained at the light intensity of 6.28 cd/s • m^2. Each recording was the average of three responses obtained within a 15-second stimulation interval. A-wave amplitude was measured from a baseline to the maximum a-wave peak, and b-wave amplitude was measured from the maximum a-wave peak to the maximum b-wave peak.

Compound | IC50 (BRD2 (BD1)) | IC50 (BRD3 (BD1)) | Wavelength enhanced multiple compared to normal saline-treated group, Average value [1] | Wavelength enhanced multiple compared to normal saline-treated group, a-wave [1] | Wavelength enhanced multiple compared to normal saline-treated group, b-wave [1]
CN(C)CCNCc1ccc(-c2ccccc2-c2cccc3c2CN(C)C3=O)o1 [Compound 5, 2-methyl-4-(2-(5-((dimethylaminoethylamino)methyl)furan-2-yl)phenyl)isoindoline-1-one] | 12.4 µM | 2360 nM |  |  | 
C#CCN(C)Cc1ccc(-c2ccccc2-c2cccc3c2CN(C)C3=O)o1 [Compound 6] | 15.8 µM | 2610 nM |  |  | 
CN1Cc2c(cccc2-c2ccccc2-c2ccc(CNC3CCCC3)o2)C1=O [Compound 7, 2-methyl-4-(2-(5-((cyclopentylamino)methyl)furan-2-yl)phenyl)isoindoline-1-one] | 18.2 µM | 4350 nM |  |  | 
CN1Cc2c(cccc2-c2ccccc2-c2ccc(CN3CCN(S(C)(=O)=O)CC3)o2)C1=O [Compound 11] | 16.6 µM | 3710 nM |  |  | 
CN1Cc2c(cccc2-c2ccccc2-c2ccc(CN3CCCCC3)o2)C1=O [Compound 12, 2-methyl-4-(2-(5-(piperidine-1-ylmethyl)furan-2-yl)phenyl)isoindoline-1-one] | 14.5 µM | 2990 nM |  |  | 
CN1Cc2c(cccc2-c2ccccc2-c2ccc(CN3CCOCC3)o2)C1=O [Compound 13, 2-methyl-4-(2-(5-(morpholinomethyl)furan-2-yl)phenyl)isoindoline-1-one] | 7.65 µM | 3650 nM | 1.33 | 1.29 | 1.36
CN1Cc2c(cccc2-c2ccccc2-c2ccc(CN3CCN(c4cccc(F)c4)CC3)o2)C1=O [Compound 14, 2-methyl-4-(2-(5-(((4-(3-fluorophenyl)piperazine-1-yl)methyl))furan-2-yl)phenyl)isoindoline-1-one] | 13.3 µM | 2400 nM |  |  | 
CN1Cc2c(cccc2-c2ccccc2-c2ccc(CN3CCC(N(C)C)CC3)o2)C1=O [Compound 15, 2-methyl-4-(2-(5-((4-(dimethylamino)piperidine-1-yl)methyl)furan-2-yl)phenyl)isoindoline-1-one] | 15.8 µM | 2560 nM |  |  | 
CN1Cc2c(cccc2-c2ccccc2-c2ccc(CN3CCN(C(C)(C)C(N)=O)CC3)o2)C1=O [Compound 16] | 15.8 µM | 1750 nM |  |  | 
CN1Cc2c(cccc2-c2ccccc2-c2ccc(CN3CCC(Cc4ccc(F)cc4)(C(=O)NCc4ccccc4)CC3)o2)C1=O [Compound 20] | 16.7 µM | 3720 nM |  |  | 
CN1Cc2c(cccc2-c2ccccc2-c2ccc(CN3CCC(Cc4ccccc4)(C(N)=O)CC3)o2)C1=O [Compound 29, 2-methyl-4-(2-(5-(((4-benzyl-4'-carboxamidyl)piperidine)methyl)furan-2-yl)phenyl)isoindoline-1-one] | 14.6 µM | 4860 nM |  |  | 
CN1Cc2c(cccc2-c2ccccc2-c2ccc(CN3CCC(Cc4ccncc4)(C(N)=O)CC3)o2)C1=O [Compound 31, 2-methyl-4-(2-(5-(((4-pyridinylmethyl-4'-carboxamidyl)piperidine)methyl)furan-2-yl)phenyl)isoindoline-1-one] | 15 µM | 2780 nM |  |  | 
CNC(=O)c1ccc(-c2ccccc2-c2cccc3c2CN(C)C3=O)o1 [Compound 33, 2-methyl-4-(2-(5-((methylamino)carbonyl)furan-2-yl)phenyl)isoindoline-1-one] | 11.1 µM | 2390 nM |  |  | 
CNC(=O)C1(C)CN(C(=O)c2ccc(-c3ccccc3-c3cccc4c3CN(C)C4=O)o2)CCC1O (stereo not drawn) [Compound 34] | 15.7 µM | 4680 nM |  |  | 

Further compounds by falling IC50 (BRD3 (BD1)), results first:

IC50 (BRD2 (BD1)) | IC50 (BRD3 (BD1)) | Wavelength enhanced multiple compared to normal saline-treated group, Average value [1] | Wavelength enhanced multiple compared to normal saline-treated group, a-wave [1] | Wavelength enhanced multiple compared to normal saline-treated group, b-wave [1] | Compound
14.1 µM | 4510 nM |  |  |  | CCCNCc1ccc(-c2ccccc2-c2cccc3c2CN(C)C3=O)o1 [Compound 3, 2-methyl-4-(2-(5-((propylamino)methyl)furan-2-yl)phenyl)isoindoline-1-one]
17.4 µM | 4430 nM |  |  |  | COCNCc1ccc(-c2ccccc2-c2cccc3c2CN(C)C3=O)o1 [Compound 4, 2-methyl-4-(2-(5-((methoxymethylamino)methyl)furan-2-yl)phenyl)isoindoline-1-one]
14.5 µM | 4260 nM |  |  |  | CCC1(C(=O)NC)CCCN(C(=O)c2ccc(-c3ccccc3-c3cccc4c3CN(C)C4=O)o2)C1 (stereo not drawn) [Compound 36]
16.8 µM | 3990 nM |  |  |  | CNC(=O)C1(Cc2ccc(F)cc2)CCN(C(=O)c2ccc(-c3ccccc3-c3cccc4c3CN(C)C4=O)o2)CC1 [Compound 32, 2-methyl-4-(2-(5-(((4-(4-fluorobenzyl)-4'-carboxamidyl)piperidine)carbonyl)furan-2-yl)phenyl)isoindoline-1-one]
11.4 µM | 3890 nM |  |  |  | CN1CCN(CCNCc2ccc(-c3ccccc3-c3cccc4c3CN(C)C4=O)o2)CC1 [Compound 10, 2-methyl-4-(2-(5-(((2-(4-methylpiperazine-1-yl)ethyl)amino)methyl)furan-2-yl)phenyl)isoindoline-1-one]
19.7 µM | 3850 nM |  |  |  | CN1Cc2c(cccc2-c2ccccc2-c2ccc(CNCCS(C)(=O)=O)o2)C1=O [Compound 9]
14 µM | 3610 nM |  |  |  | CN1Cc2c(cccc2-c2ccccc2-c2ccc(CNCc3ccccc3)o2)C1=O [Compound 17, 2-methyl-4-(2-(5-((benzylamino)methyl)furan-2-yl)phenyl)isoindoline-1-one]
6.51 µM | 2670 nM | 2.04 | 2.05 | 2.03 | CN1Cc2c(cccc2-c2ccccc2-c2ccc(CNCc3cnn(C)c3)o2)C1=O [Compound 18, 2-methyl-4-(2-(5-((((1-methyl-1H-pyrazole-4yl)methyl)amino)methyl)furan-2-yl)phenyl)isoindoline-1-one]
 | 2200 nM |  |  |  | CC(C)NCc1ccc(-c2ccccc2-c2cccc3c2CN(C)C3=O)o1 [Compound 8, 2-methyl-4-(2-(5-((isopropylamino)methyl)furan-2-yl)phenyl)isoindoline-1-one]
15.5 µM | 2140 nM |  |  |  | CNC(=O)C1(C)CN(Cc2oc(-c3ccccc3-c3cccc4c3CN(C)C4=O)cc2C)CCC1O (stereo not drawn) [Compound 41]
15.2 µM | 1670 nM |  |  |  | CCC1(C(=O)NC)CCCN(Cc2ccc(-c3ccccc3-c3cccc4c3CN(C)C4=O)o2)C1 (stereo not drawn) [Compound 24]
13.9 µM | 1400 nM |  |  |  | CNC(=O)C1(Cc2ccccc2)CCN(Cc2ccc(-c3ccccc3-c3cccc4c3CN(C)C4=O)o2)CC1 [Compound 19]
16.9 µM | 1390 nM |  |  |  | CNCc1ccc(-c2ccccc2-c2cccc3c2CN(C)C3=O)o1 [Compound 1, 2-methyl-4-(2-(5-((methylamino)methyl)furan-2-yl)phenyl)isoindoline-1-one]
13 µM | 1380 nM |  |  |  | CNC(=O)CC1C(=O)NCCN1Cc1ccc(-c2ccccc2-c2cccc3c2CN(C)C3=O)o1 (stereo not drawn) [Compound 26]
15.3 µM | 1300 nM |  |  |  | CN1Cc2c(cccc2-c2ccccc2-c2ccc(CN3CCC4(CC3)C(=O)N(C)CC4c3ccc(F)cc3)o2)C1=O (stereo not drawn) [Compound 23, 2-methyl-4-(2-(5-(((4-(4-fluorophenyl)-2-methyl)-2λ^2,8-diazaspiro[4,5]decan-1-one)methyl)furan-2-yl)phenyl)isoindoline-1-one]
16.8 µM | 1260 nM |  |  |  | CCNCc1ccc(-c2ccccc2-c2cccc3c2CN(C)C3=O)o1 [Compound 2, 2-methyl-4-(2-(5-((ethylamino)methyl)furan-2-yl)phenyl)isoindoline-1-one]
13.7 µM | 1190 nM |  |  |  | CN1Cc2c(cccc2-c2ccccc2-c2ccc(CN3CCC4(CC3)C(=O)NCC4c3ccc(F)cc3)o2)C1=O (stereo not drawn) [Compound 22, 2-methyl-4-(2-(5-((4-(4-fluorophenyl)-2λ^2,8-diazaspiro[4,5]decan-1-one)methyl)furan-2-yl)phenyl)isoindoline-1-one]
12.5 µM | 1120 nM |  |  |  | CNCc1oc(-c2ccccc2-c2cccc3c2CN(C)C3=O)cc1C [Compound 38]
